pIC50: −log10 of the molar value.
How the values were obtained:
LNCaP cells = assay: LNCaP cell viability assay (CellTiter-Glo); format: cell-based; settings: for pIC50: Homo sapiens, 72 h, LNCaP prostate cancer cell viability inhibition, 3 days; for viability of LNCaP cells: from 10 μM, 12-point 3-fold serial dilution, 3 days (FIG. 4)
Procedure: LNCaP cells seeded in 96-well plates were treated with 10 μM GNE-781 or selected bivalent compounds, i.e. P-001, P-002, and P-019, following a 12-point 3-fold serial dilution. Three days after treatment, cell viability was determined using the CellTiter-Glo kit (Promega) following manufacturer's instructions. Cell viability was normalized to the mean values of 3 replicates of untreated cells. Dose-dependent response was analyzed following the least-squares non-linear regression method using the GraphPad Prism 5.0 software.
LNCaP cells were treated with GNE-781 or selected bivalent compounds for 3 days at indicated concentrations following a 3-fold serial dilution.
Cells were seeded at a density of 5000 cells per well in 96-well assay plates and treated with test compounds following a 12-point 3-fold serial dilution. Three days later, cell viability was determined using the CellTiter-Glo assay kit according to the manufacturer's instructions. The dose-response curves were determined and IC50 values were calculated using the GraphPad Prism software following a nonlinear regression (least squares fit) method.

P300 = P300 (Homo sapiens, UniProt Q09472); assay: Immunoblotting of P300 protein levels in LNCaP or 22RV1 cells; format: cell-based; set-up: LNCaP or 22RV1 cells that express CBP/P300 proteins were treated with GNE-781 or the bivalent compounds; endogenous in cells; host or cells: LNCaP (clone FGC) or 22RV1 cells; settings: percentage of inhibition of p300 at 10 nM (Table 2); read-out: Degradation (10 nM)
Procedure: Specific exemplary bivalent compounds were characterized in LNCaP or 22RV1 cells. LNCaP or 22RV1 cells that express CBP/P300 proteins were treated with GNE-781 or the bivalent compounds disclosed herein (P-001 to P-174) for indicated hours. Cells were collected, lysed and subject to immunoblotting using an antibody specific to P300 or CBP proteins. Tubulin or vinculin was included as the loading control. DMSO was used as the negative control.
Cultured cells or tissue chunks were washed with cold PBS once and lysed in cold RIPA buffer supplemented with protease inhibitors and phosphatase inhibitors (Beyotime Biotechnology). The solutions were then incubated at 4° C. for 30 minutes with gentle agitation to fully lyse cells. Cell lysates were centrifuged at 13,000 rpm for 10 minutes at 4° C. and pellets were discarded. Total protein concentrations in the lysates were determined by BCA assays (Beyotime Biotechnology). Cell lysates were mixed with Laemmli loading buffer to 1× and heated at 99° C. for 5 min. Proteins were resolved on SDS-PAGE and visualized by chemiluminescence. Images were taken by a ChemiDoc MP Imaging system (Bio-Rad). Protein bands were quantitated using the accompanied software provided by Bio-Rad.

Sequence of P300 (Q09472 whole entry): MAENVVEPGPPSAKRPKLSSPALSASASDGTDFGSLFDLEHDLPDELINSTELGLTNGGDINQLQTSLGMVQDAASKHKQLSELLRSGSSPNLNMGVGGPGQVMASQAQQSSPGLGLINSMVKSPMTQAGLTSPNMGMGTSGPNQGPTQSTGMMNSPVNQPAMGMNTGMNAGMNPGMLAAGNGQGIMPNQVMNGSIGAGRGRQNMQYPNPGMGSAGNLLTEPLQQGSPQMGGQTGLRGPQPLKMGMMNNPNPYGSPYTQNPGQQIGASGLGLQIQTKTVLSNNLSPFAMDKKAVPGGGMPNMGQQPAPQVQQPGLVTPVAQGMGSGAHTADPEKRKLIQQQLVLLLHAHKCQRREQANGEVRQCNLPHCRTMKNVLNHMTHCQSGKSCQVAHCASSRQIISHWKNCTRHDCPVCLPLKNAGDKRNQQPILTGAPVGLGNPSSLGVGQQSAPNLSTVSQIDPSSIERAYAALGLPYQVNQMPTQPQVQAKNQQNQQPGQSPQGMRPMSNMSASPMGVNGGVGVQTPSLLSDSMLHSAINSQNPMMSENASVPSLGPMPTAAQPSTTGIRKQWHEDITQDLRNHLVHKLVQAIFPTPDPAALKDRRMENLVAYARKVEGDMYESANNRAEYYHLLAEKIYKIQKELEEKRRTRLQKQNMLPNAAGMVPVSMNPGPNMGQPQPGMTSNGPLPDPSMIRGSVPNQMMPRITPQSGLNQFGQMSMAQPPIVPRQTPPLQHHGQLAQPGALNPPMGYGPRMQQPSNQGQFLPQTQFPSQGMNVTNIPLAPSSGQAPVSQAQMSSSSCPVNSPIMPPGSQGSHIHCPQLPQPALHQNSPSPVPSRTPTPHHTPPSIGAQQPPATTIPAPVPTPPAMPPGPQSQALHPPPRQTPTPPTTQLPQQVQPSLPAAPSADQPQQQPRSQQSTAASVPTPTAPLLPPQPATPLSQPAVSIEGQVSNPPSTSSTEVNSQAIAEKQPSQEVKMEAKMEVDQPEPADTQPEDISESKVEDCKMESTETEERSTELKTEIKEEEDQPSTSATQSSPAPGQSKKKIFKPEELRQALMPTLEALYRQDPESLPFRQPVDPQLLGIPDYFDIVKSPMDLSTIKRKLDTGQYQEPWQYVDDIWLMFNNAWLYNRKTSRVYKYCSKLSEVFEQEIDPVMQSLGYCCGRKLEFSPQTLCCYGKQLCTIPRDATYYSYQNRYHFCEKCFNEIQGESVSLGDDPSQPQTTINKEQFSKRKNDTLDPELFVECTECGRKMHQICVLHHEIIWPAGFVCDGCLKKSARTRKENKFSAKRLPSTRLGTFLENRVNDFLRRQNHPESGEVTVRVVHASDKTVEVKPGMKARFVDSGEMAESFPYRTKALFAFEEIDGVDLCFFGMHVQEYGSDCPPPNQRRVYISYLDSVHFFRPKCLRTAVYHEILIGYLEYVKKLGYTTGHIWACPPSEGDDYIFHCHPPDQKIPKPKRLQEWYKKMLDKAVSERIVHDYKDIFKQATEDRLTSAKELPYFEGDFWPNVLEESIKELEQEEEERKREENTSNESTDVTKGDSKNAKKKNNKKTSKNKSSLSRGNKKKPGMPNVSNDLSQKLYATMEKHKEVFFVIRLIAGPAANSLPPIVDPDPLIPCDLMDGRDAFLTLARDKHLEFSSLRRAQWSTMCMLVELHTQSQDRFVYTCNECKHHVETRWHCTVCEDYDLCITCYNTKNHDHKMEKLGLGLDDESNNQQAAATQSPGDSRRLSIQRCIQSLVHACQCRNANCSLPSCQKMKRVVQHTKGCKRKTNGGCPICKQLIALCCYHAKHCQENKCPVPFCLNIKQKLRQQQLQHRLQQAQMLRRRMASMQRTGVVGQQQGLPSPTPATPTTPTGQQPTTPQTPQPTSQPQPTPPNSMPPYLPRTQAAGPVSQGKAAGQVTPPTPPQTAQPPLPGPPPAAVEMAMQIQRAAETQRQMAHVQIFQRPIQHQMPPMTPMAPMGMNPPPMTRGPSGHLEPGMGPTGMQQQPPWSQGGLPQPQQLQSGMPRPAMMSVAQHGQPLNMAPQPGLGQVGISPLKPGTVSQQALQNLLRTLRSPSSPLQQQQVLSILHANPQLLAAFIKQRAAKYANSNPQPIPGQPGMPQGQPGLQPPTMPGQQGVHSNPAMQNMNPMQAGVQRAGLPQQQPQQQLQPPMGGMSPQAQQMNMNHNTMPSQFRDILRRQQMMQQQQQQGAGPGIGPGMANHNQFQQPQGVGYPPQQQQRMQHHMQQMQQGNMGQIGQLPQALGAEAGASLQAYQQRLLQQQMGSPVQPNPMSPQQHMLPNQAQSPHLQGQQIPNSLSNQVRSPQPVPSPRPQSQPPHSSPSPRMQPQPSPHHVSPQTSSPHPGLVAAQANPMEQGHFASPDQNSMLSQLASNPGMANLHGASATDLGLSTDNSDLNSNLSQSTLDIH

Structure (SMILES)	pIC50 (LNCaP cells; CellTiter-Glo (Table 2))	inhibition at 0.01 µM (P300) [%]	pIC50 (LNCaP cells; CellTiter-Glo (Table 3))	viability of LNCaP cells (LNCaP cells)
CNC(=O)N1CCc2c(c(N3CCCc4cc(-c5cnn(CC(=O)NCCCCCCCCCC(=O)NC(C(=O)N6C[C@H](O)C[C@H]6C(=O)NCc6ccc(-c7scnc7C)cc6)C(C)(C)C)c5)c(C(F)F)cc43)nn2C2CCOCC2)C1 (stereo in doubt) [P-049, 3-(7-(Difluoromethyl)-6-(1-(2-((10-(((S)-1-((2S,4R)-4-hydroxy-2-((4-(4-methylthiazol-5-yl)benzyl)carbamoyl)pyrrolidin-1-yl)-3,3-dimethyl-1-oxobutan-2-yl)amino)-10-oxodecyl)amino)-2-oxoethyl)-1H-pyrazol-4-yl)-3,4-dihydroquinolin-1(2H)-yl)-N-methyl-1-(tetrahydro-2H-pyran-4-yl)-1,4,6,7-tetrahydro-5H-pyrazolo[4,3-c]pyridine-5-carboxamide]	6.63	< 20	–	–
CNC(=O)N1CCc2c(c(N3CCCc4cc(-c5cnn(C)c5)c(C(F)F)cc43)nn2C2CCN(C(=O)CCCCCCNc3ccc4c(c3)C(=O)N(C3CCC(=O)NC3=O)C4=O)CC2)C1 (stereo not drawn) [P-006, 3-(7-(difluoromethyl)-6-(1-methyl-1H-pyrazol-4-yl)-3,4-dihydroquinolin-1(2H)-yl)-1-(1-(7-((2-(2,6-dioxopiperidin-3-yl)-1,3-dioxoisoindolin-5-yl)amino)heptanoyl)piperidin-4-yl)-N-methyl-1,4,6,7-tetrahydro-5H-pyrazolo[4,3-c]pyridine-5-carboxamide]	8.49	> 80	–	–
CNC(=O)N1CCc2c(c(N3CCCc4cc(-c5cnn(C)c5)c(C(F)F)cc43)nn2C2CCN(C(=O)CCOCCOCCNc3ccc4c(c3)C(=O)N(C3CCC(=O)NC3=O)C4=O)CC2)C1 (stereo not drawn) [P-009, 3-(7-(difluoromethyl)-6-(1-methyl-1H-pyrazol-4-yl)-3,4-dihydroquinolin-1(2H)-yl)-1-(1-(3-(2-(2-((2-(2,6-dioxopiperidin-3-yl)-1,3-dioxoisoindolin-5-yl)amino)ethoxy)ethoxy)propanoyl)piperidin-4-yl)-N-methyl-1,4,6,7-tetrahydro-5H-pyrazolo[4,3-c]pyridine-5-carboxamide]	6.94	20 to 50	–	–
CC(=O)N1CCc2c(c(N3CCCc4cc(-c5cnn(C)c5)c(C(F)F)cc43)nn2C2CCN(C3CCN(CCCOc4cccc5c4C(=O)N(C4CCC(=O)NC4=O)C5=O)CC3)CC2)C1 (stereo not drawn) [P-139, 4-(3-(4-(5-Acetyl-3-(7-(difluoromethyl)-6-(1-methyl-1H-pyrazol-4-yl)-3,4-dihydroquinolin-1(2H)-yl)-4,5,6,7-tetrahydro-1H-pyrazolo[4,3-c]pyridin-1-yl)-[1,4′-bipiperidin]-1′-yl)propoxy)-2-(2,6-dioxopiperidin-3-yl)isoindoline-1,3-dione]	–	–	< 6.30	–
CC(=O)N1CCc2c(c(N3CCCc4cc(-c5cnn(C)c5)c(C(F)F)cc43)nn2C2CCN(C3CN(CCCOc4cccc5c4C(=O)N(C4CCC(=O)NC4=O)C5=O)C3)CC2)C1 (stereo not drawn) [P-140, 4-(3-(3-(4-(5-Acetyl-3-(7-(difluoromethyl)-6-(1-methyl-1H-pyrazol-4-yl)-3,4-dihydroquinolin-1(2H)-yl)-4,5,6,7-tetrahydro-1H-pyrazolo[4,3-c]pyridin-1-yl)piperidin-1-yl)azetidin-1-yl)propoxy)-2-(2,6-dioxopiperidin-3-yl)isoindoline-1,3-dione]	–	–	< 6.30	–
CNC(=O)N1CCc2c(c(N3CCCc4cc(-c5cnn(C)c5)c(C(F)F)cc43)nn2C2CCN(CCN3CCN(Cc4cccc5c4C(=O)N(C4CCC(=O)NC4=O)C5=O)CC3)CC2)C1 (stereo not drawn) [P-144, 3-(7-(Difluoromethyl)-6-(1-methyl-1H-pyrazol-4-yl)-3,4-dihydroquinolin-1(2H)-yl)-1-(1-(2-(4-((2-(2,6-dioxopiperidin-3-yl)-1,3-dioxoisoindolin-4-yl)methyl)piperazin-1-yl)ethyl)piperidin-4-yl)-N-methyl-1,4,6,7-tetrahydro-5H-pyrazolo[4,3-c]pyridine-5-carboxamide]	–	–	< 6.00	–
CC(=O)N1CCc2c(c(N3CCCc4cc(-c5cnn(C)c5)c(C(F)F)cc43)nn2C2CCN(CCN3CCN(Cc4cccc5c4C(=O)N(C4CCC(=O)NC4=O)C5=O)CC3)CC2)C1 (stereo not drawn) [P-145, 4-((4-(2-(4-(5-Acetyl-3-(7-(difluoromethyl)-6-(1-methyl-1H-pyrazol-4-yl)-3,4-dihydroquinolin-1(2H)-yl)-4,5,6,7-tetrahydro-1H-pyrazolo[4,3-c]pyridin-1-yl)piperidin-1-yl)ethyl)piperazin-1-yl)methyl)-2-(2,6-dioxopiperidin-3-yl)isoindoline-1,3-dione]	–	–	< 6.00	–

More lines, main results first:

pIC50 (LNCaP cells; CellTiter-Glo (Table 2))	inhibition at 0.01 µM (P300) [%]	pIC50 (LNCaP cells; CellTiter-Glo (Table 3))	Structure (SMILES)	viability of LNCaP cells (LNCaP cells)
6.73	50 to 80	–	CNC(=O)N1CCc2c(c(N3CCCc4cc(-c5cnn(C)c5)c(C(F)F)cc43)nn2C2CCN(C(=O)CNc3ccc4c(c3)C(=O)N(C3CCC(=O)NC3=O)C4=O)CC2)C1 (stereo not drawn) [P-001, 3-(7-(Difluoromethyl)-6-(1-methyl-1H-pyrazol-4-yl)-3,4-dihydroquinolin-1(2H)-yl)-1-(1-((2-(2,6-dioxopiperidin-3-yl)-1,3-dioxoisoindolin-5-yl)glycyl)piperidin-4-yl)-N-methyl-1,4,6,7-tetrahydro-5H-pyrazolo[4,3-c]pyridine-5-carboxamide]	dose-dependently suppressed viability
7.38	50 to 80	–	CNC(=O)N1CCc2c(c(N3CCCc4cc(-c5cnn(C)c5)c(C(F)F)cc43)nn2C2CCN(C(=O)CCNc3ccc4c(c3)C(=O)N(C3CCC(=O)NC3=O)C4=O)CC2)C1 (stereo not drawn) [P-002, 3-(7-(Difluoromethyl)-6-(1-methyl-1H-pyrazol-4-yl)-3,4-dihydroquinolin-1(2H)-yl)-1-(1-(3-((2-(2,6-dioxopiperidin-3-yl)-1,3-dioxoisoindolin-5-yl)amino)propanoyl)piperidin-4-yl)-N-methyl-1,4,6,7-tetrahydro-5H-pyrazolo[4,3-c]pyridine-5-carboxamide]	dose-dependently suppressed viability
7.45	50 to 80	–	CNC(=O)N1CCc2c(c(N3CCCc4cc(-c5cnn(C)c5)c(C(F)F)cc43)nn2C2CCN(C(=O)CCCNc3ccc4c(c3)C(=O)N(C3CCC(=O)NC3=O)C4=O)CC2)C1 (stereo not drawn) [P-003, 3-(7-(Difluoromethyl)-6-(1-methyl-1H-pyrazol-4-yl)-3,4-dihydroquinolin-1(2H)-yl)-1-(1-(4-((2-(2,6-dioxopiperidin-3-yl)-1,3-dioxoisoindolin-5-yl)amino)butanoyl)piperidin-4-yl)-N-methyl-1,4,6,7-tetrahydro-5H-pyrazolo[4,3-c]pyridine-5-carboxamide]	–
8.15	> 80	–	CNC(=O)N1CCc2c(c(N3CCCc4cc(-c5cnn(C)c5)c(C(F)F)cc43)nn2C2CCN(C(=O)CCCCNc3ccc4c(c3)C(=O)N(C3CCC(=O)NC3=O)C4=O)CC2)C1 (stereo not drawn) [P-004, 3-(7-(difluoromethyl)-6-(1-methyl-1H-pyrazol-4-yl)-3,4-dihydroquinolin-1(2H)-yl)-1-(1-(5-((2-(2,6-dioxopiperidin-3-yl)-1,3-dioxoisoindolin-5-yl)amino)pentanoyl)piperidin-4-yl)-N-methyl-1,4,6,7-tetrahydro-5H-pyrazolo[4,3-c]pyridine-5-carboxamide]	–
8.40	> 80	–	CNC(=O)N1CCc2c(c(N3CCCc4cc(-c5cnn(C)c5)c(C(F)F)cc43)nn2C2CCN(C(=O)CCCCCNc3ccc4c(c3)C(=O)N(C3CCC(=O)NC3=O)C4=O)CC2)C1 (stereo not drawn) [P-005, 3-(7-(difluoromethyl)-6-(1-methyl-1H-pyrazol-4-yl)-3,4-dihydroquinolin-1(2H)-yl)-1-(1-(6-((2-(2,6-dioxopiperidin-3-yl)-1,3-dioxoisoindolin-5-yl)amino)hexanoyl)piperidin-4-yl)-N-methyl-1,4,6,7-tetrahydro-5H-pyrazolo[4,3-c]pyridine-5-carboxamide]	–
< 5.00	20 to 50	–	CNC(=O)N1CCc2c(c(N3CCCc4cc(-c5cnn(C)c5)c(C(F)F)cc43)nn2C2CCN(C(=O)CCOCCNc3ccc4c(c3)C(=O)N(C3CCC(=O)NC3=O)C4=O)CC2)C1 (stereo not drawn) [P-008, 3-(7-(Difluoromethyl)-6-(1-methyl-1H-pyrazol-4-yl)-3,4-dihydroquinolin-1(2H)-yl)-1-(1-(3-(2-((2-(2,6-dioxopiperidin-3-yl)-1,3-dioxoisoindolin-5-yl)amino)ethoxy)propanoyl)piperidin-4-yl)-N-methyl-1,4,6,7-tetrahydro-5H-pyrazolo[4,3-c]pyridine-5-carboxamide]	–
